Laboratory results published in patent US20240189387A1, “DOSING REGIMENS FOR HEMATOPOIETIC STEM CELL MOBILIZATION FOR STEM CELL TRANSPLANTS IN MULTIPLE MYELOMA PATIENTS” (Ensoma, Inc., priority 2021, published 2024).
Like-named read-outs stand apart in the source and are kept apart here.

What was measured:
[1] = system: hematopoietic stem and progenitor cells; conditions: cited from earlier work
CD34+CD90+CD45RA− cells = assay: Phase 1 trial: mobilization of CD34+CD90+CD45RA− cells into peripheral blood (flow cytometry)
[2] = Phase 1 trial: treatment emergent adverse events
Excerpt: FIG. 1A depicts the treatments provided to patient cohorts enrolled in Part A and Part B of a Phase 1 clinical trial as well as measurable endpoints.
Patients were monitored for emergent adverse events.

CD34+ cells [3] = assay: Phase 1 trial: mobilization of CD34+ cells into peripheral blood (multicolor flow cytometry); conditions: for % ≥20/μL peak CD34+ / Peak CD34+ (#/μL) Median (range): Day 1
[4] = system: graft cell subsets (T cells, B cells, NK cells); conditions: cited from earlier work
CD34+ cells [5] = conditions: historical plerixafor alone data, Devine et al., Blood 2008; cited from earlier work
[6] = system: neutrophil and platelet engraftment; assay type: in vivo
[7] = system: LT-HSC cells (Lin−c-Kit+Sca1+CD150+CD48−); assay: Mobilization in mice and primary/secondary transplantation at limit dilution; assay type: in vivo; conditions: compared to the other cohorts
Excerpt: Mice (CD45.1) were mobilized according to the scheme shown in FIG. 24 and mobilized cells transplanted into CD45.2 mice at limit dilution.

neutrophils = assay: Phase 1 trial: mobilization of neutrophils (automated hematology analyzer); conditions: MGTA-145 monotherapy
Description: (§1) The dose of MGTA-145 was one of 0.0075 mg/kg, 0.015 mg/kg, 0.03 mg/kg, 0.075 mg/kg, 0.15 mg/kg, or 0.3 mg/kg. […] The dose of MGTA-145 was one of 0.015 mg/kg, 0.03 mg/kg, 0.075 mg/kg, or 0.15 mg/kg. […] The dose of MGTA-145 was one of 0.03 mg/kg or 0.075 mg/kg.
(§2) Mobilization of white blood cells (WBCs), neutrophils, lymphocytes, basophils, and eosinophils was quantified by automated hematology analyzer.

[8] = system: neutrophil activation markers (L-selectin, CD11b, CD18, CD66); assay: Phase 1 trial: neutrophil activation markers (flow cytometry); assay type: in vivo, human; conditions: MGTA-145 monotherapy
Description: (§3) Additionally, blood samples were analyzed by multicolor flow cytometry to quantify changes in expression of neutrophil activation markers such as L-selectin, CD11b, CD18, and CD66. Additionally, matrix metalloproteinase 9 (MMP-9), a neutrophil protease believed to mediate mobilization in response to MGTA-145, as well as its cognate inhibitor, TIMP-1, were quantified in plasma samples collected at the same time points by sandwich immunoassay.

CD34+ cells [9] = assay: Phase 1 trial Part D: apheresis collection yield; conditions: 2 h stagger after plerixafor
Description: as §1
The table documents the body weight of each subject, the total CD34+ cells that were obtained through the apheresis procedure, the normalized CD34+ cells/kg of body weight, and the percentage of CD34+ cells that were CD90+CD45RA−.
The table documents the total CD34+ cells that were obtained through the apheresis procedure, the normalized CD34+ cells/kg of body weight, and the percentage of CD34+ cells that were CD90+CD45RA−.

[10] = assay type: in vivo
CXCR2 = target: T1, CXCR2 (Homo sapiens, UniProt P25025); assay: Phase 1 trial: CXCR2 expression on peripheral blood neutrophils; assay type: in vivo
T1 construct: endogenous in cells; host or cells: peripheral blood neutrophils of dosed subjects (in vivo)
T1 sequence (P25025 1-360): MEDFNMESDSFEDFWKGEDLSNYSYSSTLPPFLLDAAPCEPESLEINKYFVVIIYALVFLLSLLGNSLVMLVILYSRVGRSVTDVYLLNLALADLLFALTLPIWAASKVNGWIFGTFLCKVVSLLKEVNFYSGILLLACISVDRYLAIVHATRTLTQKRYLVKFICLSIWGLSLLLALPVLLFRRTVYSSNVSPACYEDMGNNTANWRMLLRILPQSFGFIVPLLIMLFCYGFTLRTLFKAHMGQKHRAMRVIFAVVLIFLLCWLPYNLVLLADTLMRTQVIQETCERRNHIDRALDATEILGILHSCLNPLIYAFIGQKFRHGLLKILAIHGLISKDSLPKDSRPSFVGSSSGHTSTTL

white blood cells (WBCs) = assay: Phase 1 trial: mobilization of white blood cells (automated hematology analyzer); conditions: MGTA-145 monotherapy
Description: as §1, §2

MMP-9 = assay: Phase 1 trial: plasma MMP-9 and TIMP-1 (sandwich immunoassay); assay type: in vivo, human; conditions: MGTA-145 monotherapy, all six doses
Description: as §3

[11] = Part B, combination n = 38, plerixafor n = 14
[12] = Part B, plerixafor (pooled placebo + plerixafor), listed as plerixafor
[13] = Part C, 8 patients on combination (0.03 or […]), plerixafor alone
[14] = Part C, plerixafor (pooled placebo + plerixafor), listed as plerixafor
[15] = Chen et al., 2019, 2 LP plerixafor, 1 LP G-CSF
[16] = Devine et al, 2008, yield of 1 LP
[17] = MGTA-145 monotherapy 0.03 mg/kg
[18] = MGTA-145 monotherapy, the other doses
[19] = higher doses (0.075, 0.15, 0.3 mg/kg), 2 hours post administration
[20] = lower doses (0.0075, 0.015, 0.03 mg/kg)

Compound: Gro-β T N65D: SEQ ID NO: 4; Gro-β T with aspartic acid in place of asparagine at position 65
- potency (hematopoietic stem and progenitor cell mobilization) relative to Gro-β T ([1]; U.S. Pat. No. 6,447,766): substantially greater than that of Gro-β T

Compound: c1cc(CN2CCCNCCNCCCNCC2)ccc1CN1CCCNCCNCCCNCC1 [Plerixafor, 1,1′-[1,4-phenylenebis(methylene)]-bis-1,4,8,11-tetra-azacyclotetradecane]
- median peak CD34+CD90+CD45RA− cells (CD34+CD90+CD45RA− cells; plerixafor alone): 8 cells/μL
- Abdominal discomfort/pain [2, 11]: 4 (28.6) n (%)
- Back pain/Musculoskeletal pain [2, 11]: 2 (14.3) n (%)
- Diarrhea [2, 11]: 5 (35.7) n (%)
- Dizziness [2, 11]: 1 (7.1) n (%)
- Dysgeusia [2, 11]: 2 (14.3) n (%)
- Headache [2, 11]: 1 (7.1) n (%)
- Nausea [2, 11]: 2 (14.3) n (%)
- Vomiting [2, 11]: 1 (7.1) n (%)
- % ≥40/μL peak CD34+ (CD34+ cells [3]; Part B, plerixafor): 21%
- % ≥20/μL peak CD34+ (CD34+ cells [3]; Part B, plerixafor (pooled placebo + plerixafor)): 64%
- % ≥20/μL peak CD34+ (CD34+ cells [3]; [12]): 64%
- Peak CD34+ (#/μL) Median (range) (CD34+ cells [3]; [12]): 26 #/μL
- patients achieving peak CD34+ count of at least 20 cells per microliter (CD34+ cells [3]; [13]): none
- patients achieving peak CD34+ count of at least 40 cells per microliter (CD34+ cells [3]; [13]): none
- % ≥20/μL peak CD34+ (CD34+ cells [3]; Part C, plerixafor (pooled placebo + plerixafor)): 0%
- % ≥20/μL peak CD34+ (CD34+ cells [3]; [14]): 0%
- Peak CD34+ (#/μL) Median (range) (CD34+ cells [3]; [14]): 18 #/μL
- % ≥40/μL peak CD34+ (CD34+ cells [3]; Part C, plerixafor, first day): 0%
- Peak CD34+ (#/μL) Median (CD34+ cells [3]; Part C, pooled placebo + plerixafor, Day 2): 17 #/μL
- % ≥40/μL peak CD34+ (CD34+ cells [3]; Pooled B + C, plerixafor): 14%
- % ≥20/μL peak CD34+ (CD34+ cells [3]; Pooled B + C, plerixafor): 50%
- % ≥20/μL peak CD34+ (CD34+ cells [3]; Pooled B + C, plerixafor, listed as plerixafor): 56%
- patients with peak CD34+ ≥20 cells/μL (%) (CD34+ cells [3]; plerixafor alone): 50% (7/14)
- patients with peak CD34+ ≥40 cells/μL (%) (CD34+ cells [3]; plerixafor alone): 14% (2/14)
- graft CD34+ Median (range) ([4]; Chen et al., 2019, 2 LP for plerixafor (N = 50+), 1 LP for G-CSF (N = 112+)): 4.7 (0.9-9.6) ×10^6/kg
- graft CD3+ Median (range) [4, 15]: 6.0 (2.7-13.0) ×10^8/kg
- graft CD4+ Median (range) [4, 15]: 3.6 (2.0-9.4) ×10^8/kg
- graft CD8+ Median (range) [4, 15]: 2.2 (0.5-5.0) ×10^8/kg
- graft CD19+ Median (range) [4, 15]: 1.5 (0.2-7.4) ×10^8/kg
- graft CD56+ Median (range) [4, 15]: 0.4 (0.0-1.1) ×10^8/kg
- graft CD3+ Median (range) [4, 16]: 4.6 (1.5-7.8) ×10^8/kg
- graft CD4+ Median (range) [4, 16]: 3.2 (1-5.7) ×10^8/kg
- graft CD8+ Median (range) [4, 16]: 1.3 (0.4-3.4) ×10^8/kg
- graft CD19+ Median (range) [4, 16]: 1.0 (0.2-2.4) ×10^8/kg
- graft CD56+ Median (range) [4, 16]: 0.3 (0.1-1.0) ×10^8/kg
- graft CD34+ Median (range) ([4]; Devine et al, 2008, yield of 1 LP, plerixafor N = 24, G-CSF N = 8): 2.9 (1.2-6.3) ×10^6/kg
- patients with peak CD34+ ≥20 cells/μL (%) (CD34+ cells [5]): 28% (7/25)
- patients with peak CD34+ ≥40 cells/μL (%) (CD34+ cells [5]): 4% (1/25)

Compound: MGTA-145: Gro-β T (SEQ ID NO: 2), truncated Gro-β with deletion of the first four N-terminal amino acids; CXCR2 agonist
- engraftment at day 100 follow-up ([6]; 14 patients): durable engraftment
- engraftment after transplant ([6]; 18 transplanted patients): All patients have engrafted
- median time to platelet engraftment (platelets ≥20,000×10^6/L, no transfusion in 7 days) ([6]; 18 transplanted patients): 17.5 days
- patients needing RBC transfusion ([6]; 18 transplanted patients): 17%
- median time to neutrophil engraftment ([6]; 18 transplanted patients, range 11-15): 12 days
- fold increase of CD34+CD90+CD45RA− cells (CD34+CD90+CD45RA− cells; [17]): ~8.3 fold
- peak concentration of CD34+CD90+CD45RA− cells (CD34+CD90+CD45RA− cells; [17]): ~3 cells/μL
- time of peak CD34+CD90+CD45RA− mobilization post administration (CD34+CD90+CD45RA− cells; MGTA-145 monotherapy, six doses): 30 min
- fold increase of CD34+CD90+CD45RA− cells (CD34+CD90+CD45RA− cells; [18]): 2-3.5 fold
- peak concentration of CD34+CD90+CD45RA− cells (CD34+CD90+CD45RA− cells; [18]): 1-1.6 cells/μL
- engraftment rates, secondary transplantation [7]: vastly improved engraftment rates
- initial plateau of neutrophil mobilization (neutrophils; [19]): 5-8 ×10^3 cells/μL
- peak mobilization of neutrophils (neutrophils; [20]): 13-15 ×10^3 cells/μL
- fold change relative to baseline of CD66 ([8]; all doses except the highest (0.3 mg/kg)): < 2 fold
- fold change relative to baseline of CD11b and CD18 ([8]; all six doses): < 2 fold
- fold change relative to baseline of L-selectin ([8]; all six doses): < 2 fold
- Subjects with any drug related TEAE ([2]; Part A, MGTA-145 0.0075-0.3 mg/kg, n = 24): 19 (79.2) n (%)
- Back pain/Musculoskeletal pain ([2]; Part A, n = 24): 19 (79.2) n (%)
- fold increase of CD34+ cells (CD34+ cells [3]; [17]): 7 fold
- peak concentration of CD34+ cells (CD34+ cells [3]; [17]): ~10 cells/μL
- time of peak CD34+ mobilization post administration (CD34+ cells [3]; MGTA-145 monotherapy, across six doses 0.0075-0.3 mg/kg): about 30 minutes
- fold increase of CD34+ cells (CD34+ cells [3]; [18]): 2-3 fold
- peak concentration of CD34+ cells (CD34+ cells [3]; MGTA-145 monotherapy, the other doses (0.0075, 0.015, 0.075, 0.15, 0.3 mg/kg)): ~5 cells/μL
- Percent ≥20/μL (CD34+ cells [3]; Part A, MGTA-145 0.03 mg/kg): 0%
- Peak CD34+ (#/μL) Median (CD34+ cells [3]; Part A, MGTA-145 0.3 mg/kg): 3 #/μL
- Percent ≥20/μL (CD34+ cells [3]; Part A, MGTA-145 0.3 mg/kg): 0%
- Peak CD34+ (#/μL) Median (CD34+ cells [3]; Part A, MGTA-145 on Day 1, 0.03 mg/kg): 12 #/μL
- CD34+/kg Mean (CD34+ cells [9]; MGTA-145 0.03 mg/kg): 4.1 x10^6
- CD34+/kg Median (CD34+ cells [9]; MGTA-145 0.03 mg/kg): 4.3 x10^6
- CD90+/kg Mean (CD34+CD90+CD45RA− cells) (CD34+ cells [9]; MGTA-145 0.03 mg/kg): 1.3 x10^6
- CD90+/kg Median (CD34+CD90+CD45RA− cells) (CD34+ cells [9]; MGTA-145 0.03 mg/kg): 1.5 x10^6
- Total CD34+ Yield Median (range) (CD34+ cells [9]; MGTA-145 0.03 mg/kg): 321 (239-500) x10^6
- CD90+ (% of CD34+) (CD34+ cells [9]; MGTA-145 0.03 mg/kg, 0.03 mg/kg): 31%
- CD90+/kg Mean (CD34+CD90+CD45RA− cells) (CD34+ cells [9]; MGTA-145 […]): 1.4 x10^6
- CD90+/kg Median (CD34+CD90+CD45RA− cells) (CD34+ cells [9]; MGTA-145 […]): 1.2 x10^6
- CD90+ (% of CD34+) (CD34+ cells [9]; MGTA-145 […], […]): 37%
- potency to induce hematopoietic stem and progenitor cell mobilization relative to Gro-β ([1]; U.S. Pat. No. 6,080,398): superior to that of Gro-β by multiple orders of magnitude
- median severity of pain on a scale of 1-10 [10]: 8 (3-10)
- patients experiencing hyperhidrosis [10]: 4%
- patients experiencing nausea [10]: 8%
- patients experiencing thrombocytopenia [10]: 8%
- patients experiencing vomiting (grade 2) [10]: 4%
- patients with TEAEs at least possibly related to MGTA-145 [10]: 60%
- patients with acute pain [10]: 9 patients
- patients experiencing pain ([10]; 11 patients): 50%
- patients with acute onset transient bone pain with MGTA-145 ([10]; 25 patients): 38%
- patients with pain (all grade 1) ([10]; 25 patients): 44%
- patients with at least 1 treatment emergent AE with MGTA-145 ([10]; 25 patients, grade 1 n=14, grade 2 n=1): 60%
- duration of acute onset transient bone pain ([10]; 25 patients, range 3-28): 7 min
- patients with at least 1 adverse event ([10]; initial cohort): 90%
- patients with grade 2 AEs (anemia, hypokalemia) ([10]; initial cohort): 20%
- patients with grade 3 AEs (worsening of baseline grade 3 anemia; hypocalcemia) ([10]; initial cohort): 20%
- tolerability ([10]; multiple myeloma patients): well tolerated
- onset of acute and transient bone pain after start of MGTA-145 infusion (median) ([10]; range 3-10): about 5 minutes
- median duration of acute and transient bone pain ([10]; range 3-28): 7 min
- CXCR2 expression recovery prior to the second dose (CXCR2; MGTA-145 0.07 mg/kg, staggered dosing with plerixafor, two consecutive days): ~80 % of baseline
- CXCR2 on peripheral neutrophils (CXCR2; MGTA-145 monotherapy, followed by recovery over 24 hours): rapid downregulation
- initial plateau of WBC mobilization (white blood cells (WBCs); [19]): 6-10 ×10^3 cells/μL
- peak mobilization of WBCs (white blood cells (WBCs); [20]): 15-17 ×10^3 cells/μL
- molar ratio of MMP-9:TIMP-1 (MMP-9): rapid increase 30 minutes post-administration
- plasma levels of MMP-9 (MMP-9): increased sharply within 30 minutes post-administration
